Assay results as given in US9597297B2, “Combination of pilocarpin and methimazol for treating Charcot-Marietooth disease and related disorders” (PHARNEXT, priority 2008, dated 2017).
Entries after “also recorded” stand apart in the source; their conditions may differ.

Tests used:
PMP22 mRNA = PMP22 mRNA level by RT-Q-PCR in RT4-D6P2T schwannoma cells; format: cell-based, rat; conditions: 8 hrs, Methimazole 0.1 nm, Pilocarpine 0.001 nm, alone or combined
Procedure: Rat schwannoma RT4-D6-P2T cell line (ATCC #CRL2468™) is defrosted in DMEM (ATCC #30-2002) and 10% FCS (invitrogen #10106). The cells are maintained at 37° C. in a humidified incubator, in an atmosphere of air (95%.)—CO2 (5%). At passage n°4, cells are dissociated by trypsinization (+1 ml of Trypsin-EDTA, 0.25%-0.53 mM; Invitrogen) 5 to 15 min at 37° C. The reaction is stopped by addition of DMEM containing 10% of foetal bovine serum (FBS). […] are counted in a Neubauer cytometer using the trypan blue exclusion test (Sigma). The suspension is triturated with a 10 ml pipette and the cells are then centrifuged at 350×g for 10 min at room temperature. […]
Quantitative RT-PCR is used to compare the levels of PMP22 mRNA after drug stimulation, relative with housekeeping RPS9 mRNA in RT4-D6P2T cell line.
8 hrs after drug incubation, cells are rinsed with cold sterilized PBS, total RNAs from each cell sample are extracted and purified from SC using the Qiagen RNeasy micro kit (Qiagen #74004). Nucleic acids are quantified by Nanodrop spectrophotometer using 1 μl of RNA sample. The RNA integrity is determined through a BioAnalyzer (Agilent) apparatus. […]
In another experiment drugs (listed in Table 1) are incubated with rat schwannoma cell line during 8 hrs and PMP22 mRNA expression level was quantified by RT-Q-PCR.

[1] = system: CMT transgenic rat model (PMP22 transgenic rats); experiment: Post-mortem weighing of sciatic nerves and soleus muscles in CMT rats; format: in vivo; conditions: CMT female rats treated 20 weeks
Description: FIG. 5: The analysis of the post-mortem samples obtained from the animals treated with drugs as described in the legend to FIG. 3. The rats treated with drugs and placebo during 20 weeks, were deeply anesthetized and the entire sciatic nerves and soleus muscles were carefully sampled and weighted. The graphs present the 30 mean values of these measurements.
Sciatic nerves are excised and used for weighting as well as for molecular biology and/or biochemical essays. (RT-Q-PCR for PMP22 mRNA and Western blots for myelin proteins quantifications; Cayman's EIA kits—for biochemical markers such as arachidonic acid metabolites, HPLC quantification for steroids and amines, ELISA for CNTF, IL-6 etc.) performed according to generally used protocols and for analytical procedures (drug concentrations measures).
The hind limbs muscles (soleus) are sampled, weighted, snap-frozen and preserved at −80° C. until analysis (the same as for sciatic nerves).

[2] = system: CMT transgenic rat model (PMP22 transgenic rats); experiment: Bar test in CMT transgenic rats; format: in vivo; conditions: for time of treatment at which bar test effect becomes statistically significant: force-feeding; for bar test performances: female CMT TG rats vs TG placebo, methimazole 0.35 mg/kg, pilocarpine 0.2 mg/kg as printed in b214
Description: The inventors have tested compounds and combinations for therapeutic effect in CMT transgenic rat model, a hemizygous PMP22 transgenic rats bearing three additional copies of mouse PMP22 gene show signs of demyelination in peripheral and cranial nerves, (Sereda et al., 1996; Grandis et al., 2004). At the mRNA level, an average 1.6-fold overexpression of PMP22 in CMT rats correlates with the clinical phenotype. A putative threshold level of PMP22 overexpression at which the wild type gene turns into a disease gene represents an obvious “target” to reach by treatment aimed at reducing PMP22 gene expression.
The inventors have tested the compounds and combinations for therapeutic effect in a rat model. The experimental groups are formed with young rats of both genders separately. The rats are assigned to the groups following randomization schedule based on the body weight. In some experiments the randomization is based on the performances of the rats in the bar test. Both genders are represented by separate control littermates groups that are numerically equal or bigger than the treatment groups.
The rats are treated chronically with drugs—force fed or injected by Alzet osmotic subcutaneous pump (DURECT Corporation Cupertino, Calif.), depending on each drug bioavailability during 3 or 6 weeks.
Each three or four weeks the animals are subjected to a behavioural test. Each test is conducted by the same investigator in the same room and at the same time of the day; this homogeneity is maintained throughout entire experiment. All treatments and genotype determination are blinded for the investigator. “Bar test” and “Grip strength” has been mainly used to access the performance throughout study. The schedule of the bar test may change as the animal growth (in order to avoid the bias due to the learning, for example).
The bar test evaluates rats' ability to hold on a fix rod. […] The rat is placed on its four paws on the middle of the rod (diameter: 2.5 cm; length: 50 cm; 30 cm above the table). Trials are performed consecutively; the number (5 or 10) and the duration (30 or 60 sec) of trials in our experiments have been depending on batches of the animals. This variability in the testing has been introduced in order to determine the schedule appropriated to the best detection of the motor deficiency in the CMT rats in the course of the experiments.
Performance indices are recorded on each session: • The number of trials needed to hold for 60 sec or 30 sec on the rod. • The mean time spent on the bar (i.e. the fall latency) in each trial and the average on the session. In the experimental procedures the session ends after the rat has stayed two times for a cut-off time, i.e. 30 or 60 s, on the bar. A performance of the cut-off time (30 s or 60 s) is assigned to trials not completed. • The number of falls.

Cn1cc[nH]c1=S [methimazole, 1-methyl-3H-imidazole-2-thione]
PMP22 mRNA level of expression (PMP22 mRNA): no significant activity | mass of sciatic nerves and soleus muscles [1]: completely corrected | time of treatment at which bar test effect becomes statistically significant ([2]; CMT TG rats): 8 weeks | bar test performances ([2]; daily forced feeding): significantly more performing | bar test performances ([2]; daily forced feeding, listed as Methimazole): improve bar test performances

CC[C@@H]1C(=O)OC[C@@H]1Cc1cncn1C [pilocarpine, (3S,4R)-3-ethyl-4-[(3-methylimidazol-4-yl)methyl]oxolan-2-one]
PMP22 mRNA level of expression (PMP22 mRNA): no significant activity | mass of sciatic nerves and soleus muscles [1]: smaller than that of methimazole | bar test performance compared with WT placebo group ([2]; CMT TG rats, daily forced feeding): no more significantly differs from that of the WT placebo group | time of treatment at which bar test effect becomes statistically significant ([2]; CMT TG rats): 8 weeks | bar test performances ([2]; daily forced feeding): improve bar test performances; also recorded: significantly more performing
